US11040052B2, “Methods and pharmaceutical compositions for modulating autophagy in a subject in need thereof” (INSERM (INSTITUT NATIONAL DE LA SANTE ET DE LA RECHERCHE …, priority 2013, dated 2021)
“Also recorded” adds a separate entry of the source. Where two headings read alike, the source gives them in different places.

Experiments:
MCA205 tumor = assay: Growth of transplantable tumors with chemotherapy; format: in vivo, mice; conditions: for tumor growth, combined with oxaliplatin: data not shown; for tumor growth, combined with MTX: immunocompetent wild type mice, agent given before and with mitoxanthrone; for tumor growth, combined with MTX, immunodeficient mice: nu/nu (nude athymic) mice
Procedure: (§1) C57BL/6 mice (Charles River Laboratory, Lentilly, France) were bred and maintained according to both the FELASA and the Animal Experimental Ethics Committee Guidelines (Val de Marne, France). Mice were housed in a temperature-controlled environment with 12 h light/dark cycles and received food and water ad libitum. For HC-related experiments, mice were injected intraperitoneally with a single 100 mg/kg dose and 6 h later were sacrificed and tissues were immediately frozen in liquid nitrogen. For DCA- and DMKG-related experiments, mice were subjected to 24 h starvation and injected intraperitoneally each 8 h with a 100 mg/kg of either DCA or DMKG solution prepared in PBS. After 24 h of starvation, mice were sacrificed and tissues were immediately frozen in liquid nitrogen after extraction and homogenized two cycles for 20 s at 5,500 rpm using Precellys 24 tissue homogenator (Bertin Technologies, Montigny-le-Bretonneux, France) in a 20 mM Tris buffer (pH 7.4) containing 150 mM NaCl, 1% Triton X-100, 10 mM EDTA and Complete® protease inhibitor cocktail (Roche Applied Science). Tissue extracts were then centrifuged at 12,000 g at 4° C. and supernatants were collected. Protein concentration in the supernatants was evaluated by the bicinchoninic acid technique (BCA protein assay kit, Pierce Biotechnology, Rockford, Ill.). For hydroxycitrate-related weight-loss experiments, autophagy-deficient Atg4b^−/− mice were used. Atg4b^−/− mice have been previously described (Mariño et al., 2010). For HC-, spermidine-, and resveratrol-related experiments (tumour growth) mice were intraperitoneally injected with respectively 100 mg/kg, 50 mg/kg and 100 mg/kg doses at day 8 and day 9. At day 9, mice were intraperitoneally injected with 2 mg/kg single dose of Mitoxanthrone. For starvation related experiment (tumour growth) mice were treated as previously described (Fabrizio et. al., 2010).
Six weeks old female C57BL/6, Balb/c and nude athymic mice (Harlan Laboratory, Gannat, France) were bred and maintained according to both the FELASA and the Animal Experimental Inserm Ethics Committee Guidelines (project: 2012-69). Mice were housed in a temperature-controlled environment with 12 h light/dark cycles and received food and water ad libitum. For tumor growth experiments, procedures adopted are described as follows: 3×10^5 tumor cells were subcutaneously inoculated; when tumors became palpable (day −1 before chemotherapy), mice were first intraperitoneally injected with 100 mg/kg Potassium Hydroxycitrate, 10 mg/kg Acetylsalicylic Acid, 30 mg/kg SB204990, 30 mg/kg c646, 5 mg/kg Rapamycin, 25 mg/kg Resveratrol, 50 mg/kg Spermidine. At day 0, mice were intraperitoneally injected with the abovementioned compounds and with 5.17 mg/Kg Mitoxanthrone or 5 mg/kg Oxaliplatin. Tumor size was measured every two days. For starvation experiments, mice underwent 48 hour fasting followed by intreperitoneal injection of chemotherapeutics. For autophagy induction study, 6 hours after CRMs administration, mice were sacrificed and tissues were snap-frozen in liquid nitrogen after extraction and homogenized two cycles for 20 s at 5,500 rpm using Precellys 24 tissue homogenator (Bertin Technologies, Montigny-le-Bretonneux, France) in a 20 mM Tris buffer (pH 7.4) containing 150 mM NaCl, 1% Triton X-100, 10 mM EDTA and Complete® protease inhibitor cocktail (Roche Applied Science, Penzberg, Germany). Tissue extracts were then centrifuged at 12,000 g at 4° C. and supernatants were collected. Protein concentration in the supernatants was evaluated by the bicinchoninic acid technique (BCA protein assay kit, Pierce Biotechnology, Rockford, US.

[1] = test system: autophagy in mice tissues; assay: Autophagy induction in tissues of fed mice (LC3 lipidation, p62, GFP-LC3 dots); format: in vivo
Procedure: as §1
To avoid post-mortem autophagy induction, dead mice were immediately perfused with 4% paraformaldehyde (w:v in PBS, pH 7.4). Tissues were then harvested and further fixed with the same solution for at least 4 h, followed by treatment with 15% sucrose (w:v in PBS) for 4 h and with 30% sucrose (w:v in PBS) overnight. Tissue samples were embedded in Tissue-Tek OCT compound (Sakura Finetechnical Co. Ltd., Tokyo, Japan) and stored at −70° C. Five μm-thick tissue sections were prepared with a CM3050 S cryostat (Leica Microsystems GmbH, Wetzlar, Germany), air-dried for 1 h, washed in PBS for 5 min, dried at RT for 30 min, and mounted with VECTASHIELD anti-fading medium. In each organ, the number of GFP-LC3 dots was counted in five independent visual fields from at least five mice using a TCS SP2 confocal fluorescence microscope (Leica Microsystems GmbH).
Six weeks old female C57BL/6, Balb/c and nude athymic mice (Harlan Laboratory, Gannat, France) were bred and maintained according to both the FELASA and the Animal Experimental Inserm Ethics Committee Guidelines (project: 2012-69). Mice were housed in a temperature-controlled environment with 12 h light/dark cycles and received food and water ad libitum. For tumor growth experiments, procedures adopted are described as follows: 3×10^5 tumor cells were subcutaneously inoculated; when tumors became palpable (day −1 before chemotherapy), mice were first intraperitoneally injected with 100 mg/kg Potassium Hydroxycitrate, 10 mg/kg Acetylsalicylic Acid, 30 mg/kg SB204990, 30 mg/kg c646, 5 mg/kg Rapamycin, 25 mg/kg Resveratrol, 50 mg/kg Spermidine. At day 0, mice were intraperitoneally injected with the abovementioned compounds and with 5.17 mg/Kg Mitoxanthrone or 5 mg/kg Oxaliplatin. Tumor size was measured every two days. For starvation experiments, mice underwent 48 hour fasting followed by intreperitoneal injection of chemotherapeutics. […]

AMPK, mTORC1 = assay: Immunoblot of AMPK phosphorylation and mTORC1 activity (p70s6k phosphorylation); format: cell-based, human; conditions: nutrient-depleted (starved) cells in vitro
Procedure: For immunoblotting, 25 μg of proteins were then separated on 4-12% Bis-Tris acrylamide (Invitrogen) or 12% Tris-Glycine SDS-PAGE precast gels (Biorad, Hercules, USA) and electrotransferred to ImmobilonTM membranes (Millipore Corporation, Billerica, USA). Membranes were then sliced in different parts according to the molecular weight of the protein of interest to allow simultaneous detection of different antigens within the same experiment. […] Development was performed with appropriate horseradish peroxidase (HRP)-labeled secondary antibodies (Southern Biotech, Birmingham, USA) plus the SuperSignal West Pico chemoluminescent substrate (Thermo Scientific-Pierce). An anti-glyceraldehyde-3-phosphate dehydrogenase antibody (Chemicon International, Temecula, USA) was used to control equal loading of lanes.

SMILES	tumor growth, combined with MTX (MCA205 tumor)	tumor growth, combined with MTX, immunodeficient mice (MCA205 tumor)	autophagy in vivo (LC3 lipidation, p62, GFP-LC3) [1]	AMPK phosphorylation and mTORC1 activity in starved cells (AMPK, mTORC1)	further results
O=C(O)CC(O)(C(=O)O)C(O)C(=O)O (stereo not shown) [HC, hydroxycitrate]	mimics the effects of 48 h fasting in delaying subcutaneous MCA205 tumor growth; also recorded: improves the efficacy of chemotherapy and significantly reduces tumor growth of MCA205 cells in wild type; also recorded: similarly improved tumor growth reduction by MTX; also recorded: more efficient than monotherapy with MTX	not in immunodeficient nu/nu mice	induced an increase in autophagic flux in vivo; also recorded: strongly stimulated autophagy both in vitro and in vivo; also recorded: triggered a systemic autophagic response comparable to that induced by starvation; also recorded: similarly efficient as a starvation period of 48 h	–	tumor growth, combined with MTX, autophagy-deficient tumors (MCA205 tumor; MCA205 cells with Atg5 or Atg7 shRNA): tumor growth control is lost; also recorded: largely therapy-resistant; tumor growth, combined with oxaliplatin (MCA205 tumor): caused superior tumor growth reduction, but only in WT, not in nu/nu mice; tumor growth, combined with oxaliplatin (MCA205 tumor; listed as hydroxycitrate): improved the therapeutic outcome of treatments with MTX (FIG. 8G) or oxaliplatin; tumor growth, combined with MTX (MCA205 tumor; listed as hydroxycitrate): enhanced the tumor growth-inhibitory effect of chemotherapy as efficiently as did starvation; also recorded: improved the therapeutic outcome of treatments with MTX; tumor growth, combined with MTX, CD39-expressing tumors (MCA205 tumor; tumors engineered to express the ecto-ATPase CD39, data not shown): lost its therapeutic efficacy; autophagy in vivo (LC3 lipidation, p62, GFP-LC3) ([1]; listed as Hydroxycitrate): elicits autophagy in mice muscle after 6 hours; autophagy in vivo (LC3 lipidation, p62, GFP-LC3) ([1]; listed as hydroxycitrate): triggered a systemic autophagic response comparable to that induced by starvation
CC(C)CC(=O)C(=O)O [KIC, ketoisocaproic acid]	–	–	–	inhibition of AMPK phosphorylation and reversion of mTORC1 dephosphorylation; also recorded: prevented starvation-associated mTORC1 inhibition and AMPK activation	–
O=C(O)CCCCC1CCSS1 (stereo not shown) [LA, lipoic acid]	–	–	–	blunted starvation-induced mTORC1 inhibition, AMPK activation	–
CC1=NN(c2ccc(C(=O)O)cc2)C(=O)/C1=C\c1ccc(-c2cc(C)c(C)cc2[N+](=O)[O-])o1 [c646]	can enhance chemotherapy efficacy	failed	elicits autophagy in mice muscle after 6 hours; also recorded: induced autophagy both in vitro, in cultured cells, and in vivo, in mice	–	tumor growth, combined with MTX (MCA205 tumor; listed as C646): HC could be replaced
